Results from patent US11021526B2, “DSG2-derived peptides” (Asclepiumm Taiwan Co., Ltd, priority 2016, dated 2021).
Entries after “also recorded” stand apart in the source; their conditions may differ. Where a SMILES comes first, the peptide text is derived from it.

Tests used:
[1] = test system: human umbilical vein endothelial cells (HUVEC); experiment: HUVEC tube formation assay (angiogenesis assay); type: cell-based; conditions: for collapse of volume of tube structure compared to PBS-treated control: matrigel induced vasculature of HUVEC cells, PBS-dissolved peptides; for inhibition of angiogenesis / HUVEC tube structure: HUVEC on Matrigel, five-hour incubation
From the text: Overnight starved human umbilical vein endothelial cells (HUVEC) were collected and adjusted to 1.5×10^4 cells/well (in a 96-well plate) with endothelial cell growth medium and then seeded cells on the matrigel-coated well. Different peptides and their modified forms by D-form non-nature amino acids and/or cyclization by adding N- and C-terminal Cystines; also SEQ132 is a reversal of the direction of the peptide backbone SEQ6 (retro modification): (SEQ17, SEQ78, SEQ97, MR9 DF, CMR9C, CMR9C DF, MR9D6 DF, CMR9D6C DF and SEQ132) or control PBS were added into well for five-hour incubation at 37° C. Each well was photographed at ×40 magnification through an upright microscope. Total tube lengths were quantified by using ImageJ software.

MDCK cells = experiment: EMT assay (HGF-induced EMT, inter-nuclear distance); conditions: HGF 2.5 ng/ml
Method: MDCK cells (800 cells/well) were seeded onto 96-well plate and incubated in 37° C. and 5% CO2 to become 10% sub-confluence. Then EMT was triggered by adding culture medium with cell scattering factor HGF (R&D system, 2.5 ng/ml) and tested peptides were added (SEQ2˜SEQ31) to block EMT. To measure the inter-nuclear distance, random images were captured at ×50 magnification using an upright microscope. The inter-nuclear distance was measured from the center of one nucleus to that of a neighboring/adjacent nucleus. The distance between the two nuclei was measured by using ImageJ software.

[2] = test system: rat eyes choroidal neovascularization; experiment: Rat laser-induced choroidal neovascularization model; type: in vivo; conditions: injected into vitreous body, 14 days after laser; Eylea 200 μg/5 μl, SEQ97 500 μg/5 μl; n=10
Method: The animals were fully anesthetized with a mixture of ketamine hydrochloride/xylazine hydrochloride (7:1, v/v) by intramuscular injection into the thigh muscle at 1 mL/kg. Mydrin®-P ophthalmic solution (Santen Pharmaceutical Co., Ltd.) was instilled into the eyes to dilate the pupils. Laser (wavelength: 532 nm) was used to irradiate the right eye of each animal using a Slit Lamp SL-130 (Carl Zeiss Meditec AG) and a Multicolor Laser Photocoagulator MC-300 (NIDEK Co., Ltd.). Then the peptide dosing formulation was injected into the vitreous body of the right eye using a microsyringe (MS-N10, Ito Corporation) and a 33 G needle (Ito Corporation). Fourteen days after laser irradiation, a 4% FITC-dextran solution was administered into the tail vein in a volume of 1 mL/animal. Then the animals were euthanized by overdose of an anesthetic. The eyeballs were removed and fixed in 4% paraformaldehyde-phosphate buffer for 12-24 hours. Choroidal flat mounts were prepared under a stereoscopic microscope (EZ-4, Leica Microsystems). […]
Eyes of rats were irradiated by 532 nm wave length laser and intraveally treated with peptides (SEQ97), Eylea or PBS. […] After treatment (PBS, Eylea or SEQ97) for 14 days, the photographs of the choroidal neovascularization sites were taken and quantified with ImageJ software. […]

Compound	inhibition of HGF (hepatocyte growth factor) induced EMT (epithelial-mesenchymal transition) (MDCK cells)	inhibition of angiogenesis / HUVEC tube structure [1]	further results
CMAEKWKIARDDDDDDC [CMR9D6C DF]	–	–	collapse of volume of tube structure compared to PBS-treated control [1]: 95%
CC[C@H](C)[C@H](NC(=O)[C@H](CCCCN)NC(=O)[C@H](Cc1c[nH]c2ccccc12)NC(=O)[C@H](CCCCN)NC(=O)[C@H](CCC(=O)O)NC(=O)[C@H](C)NC(=O)[C@@H](N)CCSC)C(=O)N[C@@H](C)C(=O)N[C@@H](CCCNC(=N)N)C(=O)O [SEQ17, MAEKWKIAR] (H-MAEKWKIAR-OH; N-terminus and C-terminus assumed)	advantageous effect in the inhibition of EMT; also recorded: excellent inhibiting abilities similar to SEQ6	–	–
CC[C@H](C)[C@H](NC(=O)[C@H](CCCCN)NC(=O)[C@H](Cc1c[nH]c2ccccc12)NC(=O)[C@H](CCCCN)NC(=O)[C@H](CCC(=O)O)NC(=O)[C@H](C)NC(=O)[C@@H](N)CCSC)C(=O)N[C@@H](C)C(=O)N[C@@H](CCCNC(=N)N)C(=O)N[C@@H](CCC(N)=O)C(=O)N[C@@H](CCC(=O)O)C(=O)O [SEQ15, MAEKWKIARQE] (H-MAEKWKIARQE-OH; N-terminus and C-terminus assumed)	excellent inhibiting abilities similar to SEQ6	–	–
VSTSEQRAIKWKEAM [SEQ132]	–	strong efficacy to inhibit HUVEC tube structure	–
MAEKWKIARDDDDDD [SEQ97]	–	inhibit angiogenesis	inhibition of rat eyes choroidal neovascularization [2]: significantly inhibit
MAEKWKIARDDDDDD [MR9D6 DF]	–	–	collapse of volume of tube structure compared to PBS-treated control [1]: 95%
RRRRRRRMAEKWKIAR [SEQ78]	–	inhibit angiogenesis	–
CC[C@H](C)[C@H](NC(=O)[C@H](CC(C)C)NC(=O)[C@H](Cc1ccccc1)NC(=O)[C@H](CCC(N)=O)NC(=O)[C@@H](NC(=O)[C@H](CCC(=O)O)NC(=O)[C@H](CO)NC(=O)[C@H](CCCNC(=N)N)NC(=O)CNC(=O)[C@H](CC(C)C)NC(=O)[C@H](CCCCN)NC(=O)[C@H](CCCCN)NC(=O)[C@@H](N)CCC(=O)O)[C@@H](C)CC)C(=O)N[C@@H](CO)C(=O)N[C@@H](CC(=O)O)C(=O)O [SEQ8, EKKLGRSEIQFLISD] (H-EKKLGRSEIQFLISD-OH; N-terminus and C-terminus assumed)	inhibited	–	–
CC[C@H](C)[C@H](NC(=O)[C@@H](NC(=O)[C@H](CO)NC(=O)[C@H](Cc1ccccc1)NC(=O)[C@@H](N)CO)C(C)C)C(=O)N[C@@H](CC(=O)O)C(=O)N[C@@H](CCCCN)C(=O)N1CCC[C@H]1C(=O)N1CCC[C@H]1C(=O)NCC(=O)N[C@@H](CCSC)C(=O)N[C@@H](C)C(=O)N[C@@H](CCC(=O)O)C(=O)N[C@@H](CCCCN)C(=O)N[C@@H](Cc1c[nH]c2ccccc12)C(=O)O [SEQ5, SFSVIDKPPGMAEKW] (H-SFSVIDKPPGMAEKW-OH; N-terminus and C-terminus assumed)	inhibited	–	–
Eylea: Eylea, comparator treatment (200 μg/5 μl) in the rat choroidal neovascularization model [reference compound]	–	–	inhibition of rat eyes choroidal neovascularization [2]: significantly inhibit
